Measured values: US20240181022A1, “AMURINS LYSINS, AND LYSIN-ANTIMICROBIAL PEPTIDE (AMP) CONSTRUCTS ACTIVE AGAINST GRAM-NEGATIVE BACTERIA” (priority 2021, published 2024)
In brackets after ≈: the same amount, converted by molar mass. Where two headings read alike, the source gives them in different places. Where a SMILES comes first, the peptide text is derived from it. [ ]: non-standard residue; d: D form.

Assays:
[1] = tested on: B. gladioli; format: cell-based, Burkholderia gladioli; conditions: B. gladioli (15); 2-hour treatment
Experimental: (§1) The MBEC (after 2-hour treatments) was determined as described in Jones and Wozniak, PsI Produced by Mucoid Pseudomonas aeruginosa Contributes to the Establishment of Biofilms and Immune Evasion, Am. Soc. Microbiol. 2017, 8(3):e00864-17. Meropenem and tobramycin were included as controls and were both poorly active, with MBEC90 values of >256 μg/mL (data not shown).

[2] = tested on: A. dolens; format: cell-based, Achromobacter dolens
Experimental: as §1

[3] = tested on: B. cenocepacia; format: cell-based, Burkholderia cenocepacia
Experimental: as §1

[4] = tested on: M. kansasii; test: MIC against M. kansasii; format: cell-based, Mycobacterium kansasii; conditions: M. kansasi (ATCC 12478); CAAT media
[5] = tested on: S. maltophilia; test: Serial passage resistance development study, S. maltophilia; format: cell-based, Stenotrophomonas maltophilia; conditions: S. maltophilia, day 28, triplicate
[6] = tested on: P. aeruginosa; test: Serial passage resistance development study, P. aeruginosa; format: cell-based, Pseudomonas aeruginosa; conditions: P. aeruginosa strain CFS 1292, Day 28
[7] = tested on: M. scrofulaceum; test: MIC against M. scrofulaceum; format: cell-based, Mycobacterium scrofulaceum; conditions: M. scrofulaceum (ATCC 19981); CAAT media
[8] = tested on: M. tuberculosis; format: cell-based, Mycobacterium tuberculosis
[9] = tested on: Mycobacterium species; format: cell-based
[10] = tested on: P. aeruginosa
[11] = tested on: P. aeruginosa; test: Time-kill assay in cystic fibrosis patient sputum, P. aeruginosa; format: cell-based, Pseudomonas aeruginosa
Text: Sputum from 5 cystic fibrosis patients was pooled. The resulting mixture was not filtered, as it was very dense and not amenable to sterilization by filtration. Sputum is known to be a complex mixture of DNA, carbohydrates, and lipids ([…], 2016). As used herein, the term “sputum” refers to the mucus present in the respiratory tract of an animal, such as a human. Sputum may increase in thickness due to the irritation or infection, including bacterial infection, and in some instances, may be expelled by the animal while coughing. In certain instances, cystic fibrosis may be characterized by the presence of a thick, sticky mucus or sputum present in the lungs of cystic fibrosis patients. The activity of GN370, AM1, AM2, AM3, and meropenem was determined in the sputum using a time-kill assay format as disclosed in Zhang et al., Antimicrobial peptide therapeutics for cystic fibrosis, Antimicrobial Agents Chemother. 2005; 49(7):2921-2927. […] Untreated controls were included in addition to pretreatment plating (t=0) for a baseline CFU determination. Activity was also determined in the absence of sputum for comparison to activity observed in the presence of sputum.

[12] = tested on: P. apista; format: cell-based, Pandoraea apista
Experimental: as §1

[13] = tested on: B. multivorans
Experimental: (§2) Biofilms are then washed and treated with e.g., a 2-fold dilution series of the lysin in TSBg at e.g., 37° C. for 24 hours. After treatment, wells are washed, air-dried at e.g., 37° C. and stained with e.g., 0.05% crystal violet for 10 minutes.
(§3) The antibiofilm activity of GN370, AM1, AM2, and AM3 was evaluated against various Gram-negative bacteria prevalent in cystic fibrosis patients, including P. aeruginosa, S. maltophilia, and A. xylosoxidans.
(§4) The MBEC (after 2-hour treatments) was determined as described in Jones and Wozniak, PsI Produced by Mucoid Pseudomonas aeruginosa Contributes to the Establishment of Biofilms and Immune Evasion, Am. […] Microbiol.

[14] = tested on: A. xylosoxidans
Experimental: as §2, §3, §4

[15] = tested on: S. maltophilia
Experimental: as §2, §3, §4

[16] = tested on: Achromobacter spp.; test: MIC by broth microdilution against Achromobacter spp.; format: cell-based; conditions: Tables 8-12
Experimental: MIC values were determined using a modification of the standard broth microdilution reference method defined by the Clinical and Laboratory Standards Institute (CLSI), CLSL. 2015. Methods for Dilution Antimicrobial Susceptibility Tests for Bacteria That Grow Aerobically; Approved Standard-10th Edition. Clinical and Laboratory Standards Institute, Wayne, PA. The modification was based on the replacement of Mueller Hinton Broth with either CAA media (with and without NaCl) or CAA supplemented with 2.5% human serum. MIC is the minimum concentration of peptide sufficient to suppress at least 80% of the bacterial growth compared to control.
The MICs for were determined as described below using the broth microdilution method for meropenem, GN370, AM1, AM2, and AM3. The results are shown below in Tables 8-12.

CC[C@H](C)[C@H](NC(=O)[C@@H](CCCNC(=N)N)NC(=O)[C@H](Cc1ccccc1)NC(=O)CNC(=O)CNC(=O)[C@@H](CCCNC(=N)N)NC(=O)[C@H](CCSC)NC(=O)[C@@H]1CCCN1C(=O)[C@@H](CCCNC(=N)N)NC(=O)[C@H](C)NC(=O)[C@@H](CCCNC(=N)N)NC(=O)[C@H](CC(C)C)NC(=O)[C@H](CC(N)=O)NC(=O)[C@@H](CCCNC(=N)N)NC(=O)[C@@H](CCCCN)NC(=O)[C@@H](CCCCN)NC(=O)[C@@H](NC(=O)[C@H](CC(N)=O)NC(=O)[C@@H](NC(=O)[C@H](C)NC(=O)CNC(=O)[C@@H](CCCNC(=N)N)NC(=O)[C@@H](NC(=O)[C@H](Cc1ccccc1)NC(=O)[C@@H](NC(=O)[C@@H](CCCCN)NC(=O)[C@@H](CCCNC(=N)N)NC(=O)[C@H](CO)NC(=O)[C@@H](CCCCN)NC(=O)[C@@H](CCCCN)NC(=O)[C@@H](CCCCN)NC(=O)[C@H](CO)NC(=O)[C@H](CC(C)C)NC(=O)[C@@H](CCCCN)NC(=O)[C@@H](CCCNC(=N)N)NC(=O)[C@@H](CCCNC(=N)N)NC(=O)[C@@H](CCCCN)NC(=O)[C@@H](N)CCSC)[C@@H](C)CC)[C@@H](C)O)C(C)C)C(C)C)C(=O)O [AM3] (H-M[dK][dR][dR][dK]LS[dK][dK][dK]S[dR][dK]IFT[dR]GAVNV[dK][dK][dR]NL[dR]A[dR]PM[dR]GGF[dR]I-OH; N-terminus and C-terminus assumed)
MBEC50 [1]: 4 µg/mL | MBEC90 [1]: 16 µg/mL | MBEC50 [2]: 2 µg/mL | MBEC90 [2]: 16 µg/mL | MBEC Range [2]: 1 to 32 µg/mL | MBEC50 [3]: 16 µg/mL | MBEC90 [3]: 32 µg/mL | MBEC Range [3]: 1 to 32 µg/mL | MIC [4]: 1 µg/mL (≈ 0.219 µM) | change in MIC over serial passage [5]: no increase in MIC | change in MIC over serial passage [6]: no significant changes | MIC [7]: 2 µg/mL (≈ 0.438 µM) | MIC ([8]; M. tuberculosis (ATCC 35817), (ADC, T) media): 8 µg/mL (≈ 1.75 µM) | MIC ([8]; M. tuberculosis strain TN8109_LB (MDR), 7H9 broth, 20 days): 16 µg/mL (≈ 3.5 µM) | MIC ([8]; M. tuberculosis strain TN8562_M33 (susc), 7H9 broth, 20 days): 16 µg/mL (≈ 3.5 µM) | MIC ([8]; M. tuberculosis strain TN10525_LL (MDR), 7H9 broth, 20 days): 64 µg/mL (≈ 14 µM) | MIC ([8]; M. tuberculosis strain TN10571_KY (MDR), 7H9 broth, 20 days): 16 µg/mL (≈ 3.5 µM) | MIC ([8]; M. tuberculosis strain TN12657_KQ15 (IS), 7H9 broth, 20 days): 16 µg/mL (≈ 3.5 µM) | MIC ([8]; M. tuberculosis strain TN13923_HD17 (susc), 7H9 broth, 20 days): 32 µg/mL (≈ 7 µM) | MIC ([8]; M. tuberculosis strain TN18349_W738 (susc), 7H9 broth, 20 days): 4 µg/mL (≈ 0.875 µM) | MIC ([8]; M. tuberculosis strain TN34503_001 (susc), 7H9 broth, 20 days): 16 µg/mL (≈ 3.5 µM) | activity (MIC) against Mycobacterium species [9]: highest activity | MIC50 ([10]; P. aeruginosa isolates): 0.06 µg/mL (≈ 0.0131 µM) | MIC90 ([10]; P. aeruginosa isolates): 0.25 µg/mL (≈ 0.0547 µM) | MIC Range ([10]; P. aeruginosa isolates, in µg/mL): 0.016-1 | MIC ([10]; P. aeruginosa test organism of the sputum time-kill assay): (MIC = 0.125) | activity (MIC) against P. aeruginosa isolates ([10]; all tested isolates, Tables 8-12): highly active | effect of sputum on antibacterial activity ([11]; 10% CF sputum vs no sputum): not inhibited | Log10 CFU/mL of sputum ([11]; absence of sputum, 1 hr): 2.3 Log10 CFU/mL of sputum | Log10 CFU/mL of sputum ([11]; absence of sputum, 3 hr): 2.3 Log10 CFU/mL of sputum | Log10 CFU/mL of sputum ([11]; absence of sputum, 24 hr): 2.3 Log10 CFU/mL of sputum | Log10 CFU/mL of sputum ([11]; presence of 10% sputum, 1 hr): 2.3 Log10 CFU/mL of sputum | Log10 CFU/mL of sputum ([11]; presence of 10% sputum, 3 hr): 2.3 Log10 CFU/mL of sputum | Log10 CFU/mL of sputum ([11]; presence of 10% sputum, 24 hr): 2.3 Log10 CFU/mL of sputum | killing by 1 hour, maintained by 24 hours ([11]; time-kill): complete killing | MBEC50 [12]: 8 µg/mL | MBEC90 [12]: 8 µg/mL | MBEC Range [12]: 4 to 16 µg/mL | MBEC50 [13]: 2 µg/mL | MBEC90 [13]: 4 µg/mL | MBEC Range [13]: 1 to 8 µg/mL | MBEC50 [14]: 1 µg/mL | MBEC90 [14]: 2 µg/mL | MBEC Range [14]: 0.125 to 4 µg/mL | antibiofilm activity (MBEC) against A. xylosoxidans ([14]; 2-hour treatments): primarily active | MBEC50 [15]: 1 µg/mL | MBEC90 [15]: 2 µg/mL | MBEC Range [15]: 0.125 to 16 µg/mL | activity (MIC) against Achromobacter spp. [16]: variably active
